Converted amounts (≈) assume the structure as drawn. Read-outs that look alike come from different tables or passages of the source.
Columns and labels:
[1] = test system: S. paratyphi; experiment: MIC by Steers' agar dilution method; conditions: Salmonella enterica
[2] = test system: Pr. vulgaris; experiment: MIC by Steers' agar dilution method; conditions: Proteus vulgaris
[3] = test system: K. pneumoniae A9977; experiment: Standard experimental infection in mice; assay type: in vivo; conditions: for ED50: Klebsiella pneumoniae, A9977, read-out: PD50
[4] = test system: Enterob. cloacae; experiment: MIC by Steers' agar dilution method
[5] = test system: P. mirabilis A9900 (Pm-2); experiment: Standard experimental infection (single sc treatment); conditions: for No. of survivors/No. tested: Run C-810, 1×10^3 LD50, single sc
[6] = test system: St. faecalis; experiment: MIC by Steers' agar dilution method; conditions: Enterococcus faecalis
[7] = test system: S. aureus; experiment: MIC by Steers' agar dilution method; assay type: cell-based; conditions: Staphylococcus aureus

SMILES: O=C(O)Cn1nc2ccc(SCC3=C(C(=O)O)N4C(=O)C(NC(=O)[C@H](O)c5ccccc5)[C@H]4SC3)nn2c1=O (stereo partly drawn) [BB-S488, 7-(D-Mandelamido)-3-(2-carboxymethyl-2,3-dihydro-s-triazolo[4,3-b]pyridazin-3-on-6-ylthiomethyl)-3-cephem-4-carboxylic Acid]
- MIC [1]: 0.1 µg/mL (≈ 0.175 µM)
- MIC ([2]; A9436, MHA, Table 1): 0.1 µg/mL (≈ 0.175 µM)
- MIC ([2]; A9699, MHA, Table 1): 0.2 µg/mL (≈ 0.349 µM)
- MIC ([2]; ATCC9920, Pv-4 ATCC 9920, MHA, Table 3): 0.1 µg/mL (≈ 0.175 µM)
- MIC ([2]; Pv-1 A9436, HIA, Table 4): 0.2 µg/mL (≈ 0.349 µM)
- MIC ([2]; Pv-1 A9436, MHA, Table 3): 0.2 µg/mL (≈ 0.349 µM)
- MIC ([2]; Pv-1 A9436, MHA, Table 4): 0.1 µg/mL (≈ 0.175 µM)
- MIC ([2]; Pv-1 A9436, NA, Table 4): 0.2 µg/mL (≈ 0.349 µM)
- MIC ([2]; Pv-2 A9526, MHA, Table 3): 6.3 µg/mL (≈ 11 µM)
- MIC ([2]; Pv-3 A9699 (β-lactamase), HIA, Table 4): 100 µg/mL (≈ 175 µM)
- MIC ([2]; Pv-3 A9699 (β-lactamase), MHA, Table 4): 0.8 µg/mL (≈ 1.4 µM)
- MIC ([2]; Pv-3 A9699 (β-lactamase), NA, Table 4): 0.8 µg/mL (≈ 1.4 µM)
- MIC ([2]; Pv-3 A9699, MHA, Table 3): 6.3 µg/mL (≈ 11 µM)
- MIC ([2]; Pv-5 A9539, MHA, Table 3): 25 µg/mL (≈ 43.7 µM)
- MIC ([2]; Pv-6 A9716, MHA, Table 3): 0.1 µg/mL (≈ 0.175 µM)
- MIC ([2]; Pv-7 A21240, MHA, Table 3): 25 µg/mL (≈ 43.7 µM)
- MIC ([2]; strain not given (1st of 2), MHA, Example 10): 0.1 µg/mL (≈ 0.175 µM)
- MIC ([2]; strain not named (2nd of 2), MHA, Example 10): 0.8 µg/mL (≈ 1.4 µM)
- No. of survivors/No. tested ([3]; 0.1 mg./kg., Table 6): 0/5
- No. of survivors/No. tested ([3]; 0.4 mg./kg., Table 6): 4/5
- No. of survivors/No. tested ([3]; 1.6 mg./kg., Table 6): 5/5
- No. of survivors/No. tested ([3]; 6.3 mg./kg., Table 6): 5/5
- No. of survivors/No. tested ([3]; 25 mg./kg., Table 6): 5/5
- ED50 ([3]; Run C-805, 3×10^3 LD50, single sc): 0.26 mg/kg
- ED50 ([3]; Table 6): 0.26 mg/kg
- No. of survivors/No. tested ([3]; Run C-805, 3×10^3 LD50, single sc, 0.1 mg./kg.): 0/5
- No. of survivors/No. tested ([3]; Run C-805, 3×10^3 LD50, single sc, 0.4 mg./kg.): 4/5
- No. of survivors/No. tested ([3]; Run C-805, 3×10^3 LD50, single sc, 1.6 mg./kg.): 5/5
- No. of survivors/No. tested ([3]; Run C-805, 3×10^3 LD50, single sc, 6.3 mg./kg.): 5/5
- No. of survivors/No. tested ([3]; Run C-805, 3×10^3 LD50, single sc, 25 mg./kg.): 5/5
- MIC ([4]; A9656, MHA, Table 1): 3.1 µg/mL (≈ 5.41 µM)
- MIC ([4]; El-1 A9656, HIA, Table 4): 6.3 µg/mL (≈ 11 µM)
- MIC ([4]; El-1 A9656, MHA, Table 3): 3.1 µg/mL (≈ 5.41 µM)
- MIC ([4]; El-1 A9656, MHA, Table 4): 3.1 µg/mL (≈ 5.41 µM)
- MIC ([4]; El-1 A9656, NA, Table 4): 12.5 µg/mL (≈ 21.8 µM)
- MIC ([4]; El-2 A20364 (β-lactamase), HIA, Table 4): 6.3 µg/mL (≈ 11 µM)
- MIC ([4]; El-2 A20364 (β-lactamase), MHA, Table 4): 3.1 µg/mL (≈ 5.41 µM)
- MIC ([4]; El-2 A20364 (β-lactamase), NA, Table 4): 12.5 µg/mL (≈ 21.8 µM)
- MIC ([4]; El-2 A20364, MHA, Table 3): 3.1 µg/mL (≈ 5.41 µM)
- MIC ([4]; El-4 A20650, MHA, Table 3): 1.6 µg/mL (≈ 2.79 µM)
- MIC ([4]; El-6 A9657, MHA, Table 3): 0.8 µg/mL (≈ 1.4 µM)
- MIC ([4]; El-7 A9659, MHA, Table 3): 1.6 µg/mL (≈ 2.79 µM)
- MIC ([4]; El-8 A9655, MHA, Table 3): 1.6 µg/mL (≈ 2.79 µM)
- MIC ([4]; El-9 A20021, MHA, Table 3): > 100 µg/mL
- MIC ([4]; El-11 A20344 (β-lactamase), HIA, Table 4): > 100 µg/mL
- MIC ([4]; El-11 A20344 (β-lactamase), MHA, Table 4): > 100 µg/mL
- MIC ([4]; El-11 A20344 (β-lactamase), NA, Table 4): > 100 µg/mL
- MIC ([4]; El-11 A20344, MHA, Table 3): > 100 µg/mL
- MIC ([4]; El-12 A21006, MHA, Table 3): 1.6 µg/mL (≈ 2.79 µM)
- MIC ([4]; El-14 A20953, MHA, Table 3): 0.8 µg/mL (≈ 1.4 µM)
- MIC ([4]; MHA, Example 10): 3.1 µg/mL (≈ 5.41 µM)
- ED50 ([5]; Proteus mirabilis, in Mus musculus, sc, read-out: PD50): 1.1 mg/kg
- No. of survivors/No. tested ([5]; 0.1 mg./kg.): 0/5
- No. of survivors/No. tested ([5]; 0.4 mg./kg.): 0/5
- No. of survivors/No. tested ([5]; 1.6 mg./kg.): 4/5
- No. of survivors/No. tested ([5]; 6.3 mg./kg.): 5/5
- No. of survivors/No. tested ([5]; 25 mg./kg.): 5/5
- MIC ([6]; A9536, MHA, Table 1): 100 µg/mL (≈ 175 µM)
- MIC ([6]; MHA, Example 10): > 100 µg/mL
- MIC ([6]; Sf-3 S. faecalis A9536, HIA, Table 4): > 100 µg/mL
- MIC ([6]; Sf-3 S. faecalis A9536, MHA, Table 4): > 100 µg/mL
- MIC ([6]; Sf-3 S. faecalis A9536, NA, Table 4): > 100 µg/mL
- MIC ([7]; A9497, MHA, Table 1): 0.1 µg/mL (≈ 0.175 µM)
- MIC ([7]; BX-1633, MHA, Example 10): 3.1 µg/mL (≈ 5.41 µM)
- MIC ([7]; BX-1633 A9606, MHA, Table 1): 0.4 µg/mL (≈ 0.699 µM)
- MIC ([7]; Sa-2 Smith A9537, HIA, Table 4): 0.8 µg/mL (≈ 1.4 µM)
- MIC ([7]; Sa-2 Smith A9537, MHA, Table 2): 0.4 µg/mL (≈ 0.699 µM)
- MIC ([7]; Sa-2 Smith A9537, MHA, Table 4): 0.8 µg/mL (≈ 1.4 µM)
- MIC ([7]; Sa-2 Smith A9537, NA, Table 4): 0.8 µg/mL (≈ 1.4 µM)

— US4112228A, “7-(D-α-Hydroxy-2-arylacetamido)-3-(2-carboxyalkyl-2,3-dihydro-s-tri azolo-[4,3-b]pyridazin-3-on-6-ylthiomethyl)-3-cephem-4-carboxylic acids and derivatives” (priority 1977, dated 1978)
